Experimental data as given in patent US20260159826A1, “METHOD OF MODIFYING CELLS” (ROYAL MELBOURNE INSTITUTE OF TECHNOLOGY, priority 2022, published 2026).

Key:
[1] = system: THP-1 cells; experiment: Wash assay (adherence assay) of SRBW stimulated monocytes pretreated with inhibitors/chelators; format: cell-based; settings: SRBW Treatment 4, 36 hours post exposure, BAPTA-AM 20 μM, Thapsigargin 300 nM, TPEN 1 mM, GGTI-298 15 μM, HJC0197 25 μM, FIG. 18, 19
Method: Cell culture and Mechanostimulation: THP-1 cells were obtained from CellBank (Children Medical Research institute, NSW) and grown in suspension in RPMI+Glutamax supplemented with 10% (v/v) heat-inactivated FBS with 1% penicillin-streptomycin in a humidified 37° C., 5% CO2 incubator. Low passage (passage 15 or less) cells were seeded at cell density ranging from 0.5×10^5-0.5×10^6 per cm^2. The cells were then stimulated with SRBW at a frequency of 10 Mhz and at the indicated input power and duration. The cells were stimulated and processed at different post-exposure incubation times (24 h, 36 h, 48 h, 72 h, Day 5, Day 7, Day 9).
Wash Assay: Control (untreated) and treated cells were initially characterised by wash-assay or adherence assay. Undifferentiated THP1 cells were non-adherent cells. Accordingly, cells were initially characterised by determining the percentage of adherent cells. The spent media from control and treated wells were carefully collected into labelled centrifuge tubes. The wells were washed three times with media. After each wash, the wash media was collected into corresponding centrifuge tubes. The tubes were then centrifuged at 250×g for 5 minutes. The supernatant was carefully removed, and the pellet was homogeneously mixed with 1×PBS. The cells collected from spent and wash media were counted trypan blue exclusion assay using a hemocytometer. The percentage of adherent cells was calculated by (number of cells from control wells—number of cells from treated wells/number of cells from control wells)×100. The viability was also determined using the same. The change in the cellular morphology was also recorded using Nikon.

[2] = system: HUVEC monolayers; experiment: VE-cadherin remodelling, CAB formation, linearity index and AJ length in SRBW mechanostimulated cells with pathway inhibitors; format: cell-based, human; settings: for Linearity index / AJ length (adhesion site length) / CAB formation: SRBW 8 mins at 1.5 W, GGTI-298 15 μM, NSC23766 10 μM; for Linearity index / AJ length (adhesion site length): 30 mins post exposure; for Linearity index: FIG. 6(b); for AJ length (adhesion site length): FIG. 6(c)
[3] = system: HUVEC monolayers; format: cell-based, human; settings: SRBW 8 mins at 1.5 W; in the presence of piezo channel inhibitor; FIG. 4(b)
Method: (§1) Endothelial cells were cultured in Endothelial Cell Growth Medium-2 (EGM™2) BulletKit™ in a humidified incubator maintained at 37° C. and 5% CO2. The cells were grown in a standard T25 flask until they reached 80-90% confluency, following which they were detached using 0.05% trypsin-EDTA, reseeded in the culture plates at a density of 5000 cells/cm2 and incubated until they reached 90-95% confluency. The confluent monolayer is then exposed to the SRBW irradiation at the prescribed input power and duration. The cells were immediately processed for analysis upon removal of the acoustic field at various post-exposure incubation timepoints.
Free cytosolic calcium levels were determined using the fluorescent calcium indicator Fura-2AM. In brief, the EC monolayers were incubated in […] Fura-2AM in Opti-MEM™ reduced serum medium supplemented with 2% (vol/vol) heat-inactivated FBS at 37° C. in the dark. […] The fluorescence emission intensity at 510 nm in individual wells at excitation wavelengths of 340 and 380 nm were measured using a spectrophotometric plate reader (CLARIOstar® BMG LabTech, Mornington, VIC, Australia). The ratio of Fura-2 AM fluorescence emission in response to 340 nm and 380 nm excitation (340/380) was calculated and expressed in terms of the fold change with respect to that of the respective control (unexcited) cells. […]

[4] = system: HUVEC monolayers; experiment: Intracellular cAMP (cyclic AMP XP assay) in SRBW mechanostimulated cells with Ca2+ inhibitors and chelators; format: cell-based, human; settings: for cAMP release: SRBW pretreatment in the presence of extracellular calcium, then sequential treatment, FIG. 2(e-iv), 2(e-v); for cAMP levels under SRBW mechanostimulation: pretreatment with BAPTA-AM and TPEN together, FIG. 2(e-ii)
Method: as §1
cAMP concentrations were measured through a cyclic AMP XP™ assay. Briefly, the EC monolayers were washed in Tyrode's buffer (137mMsodium chloride, 12mMsodium bi-carbonate, 5.5 mM glucose, 2 mM potassium chloride, 1mMmagnesium chloride and 0.3 mM disodium hydrogen phosphate) at pH 7.4 supplemented with […] IBMX—a phosphodiesterase inhibitor, to prevent the hydrolysis of cAMP. The cells were then exposed to the SRBW followed by incubation at different time points, after which the cells were lysed in 100 μl of lysis buffer that was supplied with the kit. 25 μl of the cell lysate and HRP-linked cAMP solution was subsequently transferred into the cAMP assay microtiter plates provided and incubated for 3 hrs at room temperature. Following incubation, the plate was washed four times and the liquid discarded. 100 μl of the supplied 3,3′,5,5″-tetramethylbenzidine (TMB) was then added and the solution incubated in the dark for 15 mins. The reaction was ceased by adding 100 μl of the provided STOP solution and its absorbance measured at 450 nm using a spectrophotometric plate reader (CLARIOstar, BMG LabTech, Mornington, VIC, Australia). The average of three measurements per treatment group was taken for cells from each individual culture, from which the cAMP concentrations can be calculated using a standard curve.

[5] = system: endothelial cells; experiment: Stress fibre (SF) formation after SRBW exposure under ROCK inhibition; format: cell-based, human; settings: initial sonochallenge phase, early times (<0.3 hrs) after SRBW; data not shown

## Cc1ccc(C)c(CSc2nc(C3CCCC3)c(C#N)c(=O)[nH]2)c1 [HJC0197, 4-cyclopentyl-2-[[(2,5-dimethylphenyl)methyl]thio]-1,6-dihydro-6-oxo-5-pyrimidinecarbonitrile]
[1]
  number of adherent cells: significantly reduced

## CCCCCCOC(=O)[C@]1(O)C[C@H]2O[C@]1(C)n1c3ccccc3c3c4c(c5c6ccccc6n2c5c31)C(=O)NC4 [KT5720, (9S,10S,12R)-2,3,9,10,11,12-hexahydro-10-hydroxy-9-methyl-1-oxo-9,12-epoxy-1H-diindolo[1,2,3-fg:3′,2′,1′-kl]pyrrolo[3,4-i][1,6]benzodiazocine-10-carboxylic acid hexyl ester]
[2]; treated prior to SRBW mechanostimulation, data not shown
  VE-cadherin remodelling and CAB formation: quelled

## N.N.N.N.N.N.N.N.N.N.N.N.N.N.[Cl-].[Cl-].[Cl-].[Cl-].[Cl-].[Cl-].[O-2].[O-2].[Ru+3].[Ru+3].[Ru+4] [ruthenium red]
[3]
  intracellular calcium under the high frequency excitation: abatement of intracellular calcium

## c1ccc(CN(CCN(Cc2ccccn2)Cc2ccccn2)Cc2ccccn2)nc1 [TPEN, N,N,N′,N′-tetrakis(2-pyridinylmethyl)-1,2-ethanediamine]
[4]
  cAMP release: affected
  cAMP levels under SRBW mechanostimulation: increased under the SRBW mechanostimulation only when extracellular calcium is present
[1]
  number of adherent cells: failed to transform to adherent cells

## CC(=O)OCOC(=O)CN(CC(=O)OCOC(C)=O)c1ccccc1OCCOc1ccccc1N(CC(=O)OCOC(C)=O)CC(=O)OCOC(C)=O [BAPTA-AM, 1,2-bis(2-aminophenoxy)ethane-N,N,N′,N′-tetraacetic acid tetrakis(acetoxymethyl ester)]
[4]
  cAMP release: not suppressed
  cAMP levels under SRBW mechanostimulation: increased under the SRBW mechanostimulation only when extracellular calcium is present
[1]
  number of adherent cells: reduced significantly

## COC(=O)[C@H](CC(C)C)NC(=O)c1ccc(NC[C@@H](N)CS)cc1-c1cccc2ccccc12.O.O=C(O)C(F)(F)F [GGTI-298, N-[[4-(2-(R)-amino-3-mercaptopropyl)amino]-2-naphthylbenzoyl]leucine methyl ester trifluoroacetate salt hydrate]
[2]
  Linearity index: departure from linearity
  AJ length (adhesion site length): increased adhesion site length
[2]; data not shown
  CAB formation: only limited CAB formation
[1]
  number of adherent cells: significantly reduced

## C[C@@H](N)[C@H]1CC[C@H](C(=O)Nc2ccncc2)CC1.Cl.Cl [Y27632, (R)-(+)-trans-4-(1-aminoethyl)-N-(4-pyridyl)cyclohexanecarboxamide dihydrochloride]
[5]
  stress fibre (SF) formation: SF attenuation

## CCN(CC)CCCC(C)Nc1nc(C)cc(Nc2ccc3nc(C)cc(N)c3c2)n1.Cl.Cl.Cl (racemic) [NSC23766, N6-[2-(4-diethylamino-1-methyl-butylamino)-6-methyl-pyrimidin-4-yl]-2-methyl-quinoline-4,6-diamine trihydrochloride]
[2]
  Linearity index: departure from linearity
  AJ length (adhesion site length): increased adhesion site length
[2]; data not shown
  CAB formation: only limited CAB formation

## C[C@H](CCC(=O)O)C[C@H](C)C[C@H](C)C(=O)/C=C(\O)[C@H](C)C[C@H](C)C/C=C/[C@@H](C)[C@@H](O)[C@@H](C)[C@@H](O)C[C@@H]1CC[C@@](C)([C@H]2CC[C@@](C)([C@@H](C)O)O2)O1 [ionomycin]
[4]
  cAMP release: affected
[4]; SRBW pretreatment, then chelation/inhibition, then ionomycin added, FIG. 2(e-iii), 40-50 mins
  cAMP levels: cAMP levels were observed to rise
